{"source": "ChEMBL document CHEMBL4393687", "about": "“Multi-targeted ChEI-copper chelating molecules as neuroprotective agents” (Eur J Med Chem, 2019)", "note": "The source made the active and inactive calls. The rule behind the calls is not given here."}
{"tested_on": "not listed separately", "test": "Metal chelating activity assessed as compound-Cu2+ complex formation at 1:1 ratio of test compound to CuCl2 incubated for 30 mins by UV-vis spectrophotometric analysis", "conditions": "not given"}
{"compound": "CCC(CC)CNc1ccc(O)c(CNc2cccc(OC(=O)N(C)CC)c2)c1", "Activity": "Active"}
{"tested_on": "not listed separately", "test": "Antioxidant activity assessed as DPPH free radical scavenging activity at 10 uM after 30 mins incubation in dark by UV-Visible spectrophotometric analysis relative to control", "format": "functional", "conditions": "not given", "units": {"Activity": "%"}}
{"compound": "CCN(C)C(=O)Nc1cccc(NC(=O)c2cccnc2O)c1", "Activity": 3.62}
{"compound": "CCN(C)C(=O)Oc1cccc(CNCc2ccccc2O)c1", "Activity": 17.7}
{"compound": "CCN(C)C(=O)Oc1cccc(CCNCc2ccccc2O)c1", "Activity": 15.5}
{"compound": "Cc1c(C)c2c(c(C)c1O)CCC(C)(C(=O)O)O2", "note": "(configuration not stated) [TROLOX]", "Activity": 24.3}
{"compound": "CCN(C)C(=O)Oc1cccc(CCNC(=O)c2cccnc2O)c1", "Activity": 2.21}
{"compound": "CCN(C)C(=O)Oc1cccc(NC(=O)c2cccnc2O)c1", "Activity": 4.18}
{"compound": "CCN(C)C(=O)Oc1cccc(NCc2ccccc2O)c1", "Activity": 13.8}
{"compound": "CCN(C)C(=O)Oc1cccc(NCc2ccccn2)c1", "Activity": 7.4}
{"compound": "CCN(C)C(=O)Oc1cccc(CNC(=O)c2cccnc2O)c1", "Activity": 2.21}
{"tested_on": "HT-22", "test": "Neuroprotective activity against glutamate-induced neuronal damage in mouse HT22 cells at 3 to 30 uM pretreated for 30 mins followed by glutamate challenge measured after 24 hrs by MTT assay", "format": "functional, cell-based", "conditions": "not given"}
{"compound": "CCC(CC)CNc1ccc(O)c(CNc2cccc(OC(=O)N(C)CC)c2)c1", "Activity": "Active"}
{"target": "Acetylcholinesterase (Electrophorus electricus) (UniProt O42275)", "sequence (O42275 24-633 limits assumed)": "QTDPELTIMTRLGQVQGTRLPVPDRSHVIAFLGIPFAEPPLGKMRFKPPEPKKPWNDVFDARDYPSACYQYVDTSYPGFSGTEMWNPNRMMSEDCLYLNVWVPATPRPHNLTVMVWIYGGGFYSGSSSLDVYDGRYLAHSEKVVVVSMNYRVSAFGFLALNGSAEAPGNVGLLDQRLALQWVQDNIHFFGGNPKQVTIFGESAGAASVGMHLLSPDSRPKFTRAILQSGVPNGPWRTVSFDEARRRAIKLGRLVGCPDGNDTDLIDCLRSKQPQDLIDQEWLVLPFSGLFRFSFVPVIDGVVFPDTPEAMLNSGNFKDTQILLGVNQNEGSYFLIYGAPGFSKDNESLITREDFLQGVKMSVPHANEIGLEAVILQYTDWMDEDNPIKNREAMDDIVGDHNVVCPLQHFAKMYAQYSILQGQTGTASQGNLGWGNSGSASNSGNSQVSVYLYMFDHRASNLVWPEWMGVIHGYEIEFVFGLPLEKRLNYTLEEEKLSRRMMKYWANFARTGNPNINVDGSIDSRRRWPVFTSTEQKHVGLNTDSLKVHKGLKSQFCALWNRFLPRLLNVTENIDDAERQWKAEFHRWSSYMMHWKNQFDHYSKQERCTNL", "test": "Inhibition of electric eel AChE at 50 nM using acetylthiocholine iodide as substrate preincubated for 60 mins followed by substrate addition measured for 5 mins by Ellman's method", "conditions": "not given", "units": {"inhibition": "%"}}
{"compound": "CCC(CC)CNc1ccc(O)c(CNCCc2cccc(OC(=O)N(C)CC)c2)c1", "inhibition": 3.36}
{"compound": "CCC(CC)CNc1ccc(O)c(CNc2cccc(OC(=O)N(C)CC)c2)c1", "inhibition": 9.01}
{"compound": "CCN(C)C(=O)Oc1cccc([C@H](C)N(C)C)c1", "inhibition": 2.59}
{"compound": "CCN(C)C(=O)Oc1cccc(CNCc2ccccc2O)c1", "inhibition": 4.06}
{"compound": "CCN(C)C(=O)Oc1cccc(CCNCc2ccccc2O)c1", "inhibition": 3.58}
{"compound": "CCN(C)C(=O)Oc1cccc(CCNC(=O)c2cccnc2O)c1", "inhibition": 5.43}
{"compound": "CCN(C)C(=O)Oc1cccc(NC(=O)c2cccnc2O)c1", "inhibition": 1.87}
{"compound": "CCN(C)C(=O)Oc1cccc(NCc2ccccc2O)c1", "inhibition": 8.13}
{"compound": "CCN(C)C(=O)Oc1cccc(NCc2ccccn2)c1", "inhibition": 8.51}
{"compound": "CCN(C)C(=O)Oc1cccc(CNC(=O)c2cccnc2O)c1", "inhibition": 7.59}
{"tested_on": "not listed separately", "test": "Cytotoxicity against mouse HT22 cells assessed as cell viability at 100 uM after 24 hrs by MTT assay relative to control", "format": "cell-based, HT-22", "conditions": "read-out: Activity", "units": {"viability at 24 h, 100 µM": "%"}}
{"compound": "CCN(C)C(=O)Nc1cccc(NC(=O)c2cccnc2O)c1", "viability at 24 h, 100 µM": 96.1}
{"compound": "CCC(CC)CNc1ccc(O)c(CNc2cccc(OC(=O)N(C)CC)c2)c1", "viability at 24 h, 100 µM": 25.2}
{"compound": "CCN(C)C(=O)Oc1cccc(CNCc2ccccc2O)c1", "viability at 24 h, 100 µM": 90.3}
{"compound": "CCN(C)C(=O)Oc1cccc(CCNC(=O)c2cccnc2O)c1", "viability at 24 h, 100 µM": 99.4}
{"compound": "CCN(C)C(=O)Oc1cccc(NC(=O)c2cccnc2O)c1", "viability at 24 h, 100 µM": 98.6}
{"compound": "CCN(C)C(=O)Oc1cccc(NCc2ccccc2O)c1", "viability at 24 h, 100 µM": 80.3}
{"compound": "CCN(C)C(=O)Oc1cccc(NCc2ccccn2)c1", "viability at 24 h, 100 µM": 80.5}
{"compound": "CCN(C)C(=O)Oc1cccc(CNC(=O)c2cccnc2O)c1", "viability at 24 h, 100 µM": 82.5}
{"tested_on": "not listed separately", "test": "Metal chelating activity assessed as compound-Cu2+ complex formation at 1:2 ratio of test compound to CuCl2 incubated for 30 mins by UV-vis spectrophotometric analysis", "conditions": "not given"}
{"compound": "CCC(CC)CNc1ccc(O)c(CNc2cccc(OC(=O)N(C)CC)c2)c1", "Activity": "Active"}
{"tested_on": "not listed separately", "test": "Metal chelating activity assessed as compound-Cu2+ complex formation by measuring shift in maximum absorption at 10 uM after 30 mins by UV-vis spectrophotometric analysis", "conditions": "not given", "units": {"Activity": "nm"}}
{"compound": "CCC(CC)CNc1ccc(O)c(CNc2cccc(OC(=O)N(C)CC)c2)c1", "Activity": 50}
{"tested_on": "not listed separately", "test": "Cytotoxicity against mouse HT22 cells assessed as cell viability at 30 uM after 24 hrs by MTT assay relative to control", "format": "cell-based, HT-22", "conditions": "read-out: Activity", "units": {"viability at 24 h, 30 µM": "%"}}
{"compound": "CCN(C)C(=O)Nc1cccc(NC(=O)c2cccnc2O)c1", "viability at 24 h, 30 µM": 97.2}
{"compound": "CCC(CC)CNc1ccc(O)c(CNc2cccc(OC(=O)N(C)CC)c2)c1", "viability at 24 h, 30 µM": 85.8}
{"compound": "CCN(C)C(=O)Oc1cccc(CNCc2ccccc2O)c1", "viability at 24 h, 30 µM": 96.6}
{"compound": "CCN(C)C(=O)Oc1cccc(CCNC(=O)c2cccnc2O)c1", "viability at 24 h, 30 µM": 106}
{"compound": "CCN(C)C(=O)Oc1cccc(NC(=O)c2cccnc2O)c1", "viability at 24 h, 30 µM": 102}
{"compound": "CCN(C)C(=O)Oc1cccc(NCc2ccccc2O)c1", "viability at 24 h, 30 µM": 103}
{"compound": "CCN(C)C(=O)Oc1cccc(NCc2ccccn2)c1", "viability at 24 h, 30 µM": 91.3}
{"compound": "CCN(C)C(=O)Oc1cccc(CNC(=O)c2cccnc2O)c1", "viability at 24 h, 30 µM": 101}
{"target": "Cholinesterase (Equus caballus) (UniProt P81908)", "sequence (P81908 whole entry)": "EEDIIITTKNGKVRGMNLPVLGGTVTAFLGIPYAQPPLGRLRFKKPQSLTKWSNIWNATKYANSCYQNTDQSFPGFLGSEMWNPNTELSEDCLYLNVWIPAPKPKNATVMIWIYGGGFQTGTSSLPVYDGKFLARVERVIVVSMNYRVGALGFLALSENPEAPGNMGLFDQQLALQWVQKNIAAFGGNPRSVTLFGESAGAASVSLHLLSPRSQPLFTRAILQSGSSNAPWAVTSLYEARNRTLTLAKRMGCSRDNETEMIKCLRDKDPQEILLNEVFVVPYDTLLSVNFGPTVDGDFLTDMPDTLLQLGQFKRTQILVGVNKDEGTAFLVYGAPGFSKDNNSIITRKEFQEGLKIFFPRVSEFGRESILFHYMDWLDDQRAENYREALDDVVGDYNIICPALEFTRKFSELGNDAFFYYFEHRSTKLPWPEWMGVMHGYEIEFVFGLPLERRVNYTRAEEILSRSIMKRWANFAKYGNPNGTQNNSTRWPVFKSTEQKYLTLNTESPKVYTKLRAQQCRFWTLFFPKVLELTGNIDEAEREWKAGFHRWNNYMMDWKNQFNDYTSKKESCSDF", "test": "Inhibition of equine serum BChE at 50 nM using acetylthiocholine iodide as substrate preincubated for 60 mins followed by substrate addition measured for 5 mins by Ellman's method", "conditions": "not given", "units": {"inhibition": "%"}}
{"compound": "CCC(CC)CNc1ccc(O)c(CNCCc2cccc(OC(=O)N(C)CC)c2)c1", "inhibition": 14.2}
{"compound": "CCC(CC)CNc1ccc(O)c(CNc2cccc(OC(=O)N(C)CC)c2)c1", "inhibition": 64.2}
{"compound": "CCN(C)C(=O)Oc1cccc([C@H](C)N(C)C)c1", "inhibition": 54.7}
{"compound": "CCN(C)C(=O)Oc1cccc(CNCc2ccccc2O)c1", "inhibition": 30.5}
{"compound": "CCN(C)C(=O)Oc1cccc(CCNCc2ccccc2O)c1", "inhibition": 34.5}
{"compound": "CCN(C)C(=O)Oc1cccc(CCNC(=O)c2cccnc2O)c1", "inhibition": 53.7}
{"compound": "CCN(C)C(=O)Oc1cccc(NC(=O)c2cccnc2O)c1", "inhibition": 73.6}
{"compound": "CCN(C)C(=O)Oc1cccc(NCc2ccccc2O)c1", "inhibition": 38.5}
{"compound": "CCN(C)C(=O)Oc1cccc(NCc2ccccn2)c1", "inhibition": 58.9}
{"compound": "CCN(C)C(=O)Oc1cccc(CNC(=O)c2cccnc2O)c1", "inhibition": 46.5}
{"tested_on": "not listed separately", "test": "Antioxidant activity assessed as DPPH free radical scavenging activity after 30 mins incubation in dark by UV-Visible spectrophotometric analysis", "format": "functional", "conditions": "not given", "units": {"IC50": "µM"}}
{"compound": "CCC(CC)CNc1ccc(O)c(CNCCc2cccc(OC(=O)N(C)CC)c2)c1", "IC50": 28.7}
{"compound": "CCC(CC)CNc1ccc(O)c(CNc2cccc(OC(=O)N(C)CC)c2)c1", "IC50": 26.5}
{"compound": "Cc1c(C)c2c(c(C)c1O)CCC(C)(C(=O)O)O2", "note": "(configuration not stated) [TROLOX]", "IC50": 23.5}
